# Earlier results, collected in patent US12128121B2, “Compositions comprising organo-silanol compounds, and applications” (EXSYMOL, priority 2020, dated 2024).
# Like-named read-outs stand apart in the source and are kept apart here.
smiles,measurement,setting,value
"C[Si](O)(O)O [CH3—Si(OH)3, monomethylsilanetriol]",concentration in water,"as silicon, CH3—Si(OH)3",~588 mg Si/I
same,concentration in water,limit before self-condensation,~21 mM
